From patent US20260028326A1, “COMPOUND BASED ON ISOINDOLINE-SUBSTITUTED GLUTARIMIDE BACKBONE AND USE THEREOF” (GLUETACS THERAPEUTICS (SHANGHAI) CO., LTD., priority 2022, published 2026)

Tests used:
[1] = target: IKZF1 protein (Homo sapiens (Human), UniProt Q13422+Q96SW2); experiment: Western-blot assay of substrate protein degradation in hPBMC, IKZF1; type: cell-based; conditions: for residual substrate protein level, IKZF1: hPBMC cells, compound 500 nM, 24 hours, Western blot
Experimental: (§1) After treating the cells with the compounds for 24 hours, the cells were collected and lysed using RIPA protein lysate containing phosphatase inhibitors. The lysate was then placed on ice for 30-60 minutes and centrifuged. The supernatant was aspirated as the extracted total cell protein. The protein concentration of the supernatant was determined using the conventional BCA (Bicinchoninic Acid) assay. The supernatant was then mixed with 4×SDS sample loading buffer, denatured at 95° C. for 5 minutes, and then subjected to SDS-PAGE electrophoresis on a polyacrylamide gel, followed by transfer to a nitrocellulose membrane (NC membrane). The membrane was blocked with blocking buffer at room temperature for 1-2 hours, and then antibody incubation and detection were carried out according to the antibody instructions provided by Cell Signaling Technology.
(§2) Half-Maximal Degradation Concentration value (the drug concentration required for degrading proteins by 50%, abbreviated as DC50) reads method: comparing the gray values of the Western blotting bands for the drug treatment with the gray values of the Western blotting band for the DMSO control, and reading the drug concentration range corresponding to the gray value of the Western blotting bands for the drug treatment which is equal to half of the gray value of the Western blotting band for the DMSO control.
(§3) DC50 value could also be calculated as follows: using software ImageJ to quantify the gray values of the Western blotting bands for the drug treatment, fitting the relationship curve between drug concentrations and gray values, and from the fitted curve, calculating the drug concentration corresponding to half of the gray value of the Western blotting band for the DMSO control.

[2] = target: human Cereblon WT GST-tagged protein (Homo sapiens (Human), UniProt Q96SW2); experiment: CRBN-binding affinity, HTRF (CEREBLON BINDING kit)
Summary of the method: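 HTRF competition readout: compounds compete with a thalidomide-Re conjugate for GST-tagged wild-type human CRBN detected via Eu-labelled anti-GST antibody. Inhibition rate derived relative to protein-free blank wells.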

[3] = target: GSPT1 protein (Homo sapiens (Human), UniProt P15170+Q96SW2); experiment: Western-blot assay of substrate protein degradation in hPBMC, GSPT1; type: cell-based; conditions: for residual substrate protein level, GSPT1: hPBMC cells, compound 500 nM, 24 hours, Western blot
Experimental: as §1, §2, §3

[4] = target: IKZF3 protein (Homo sapiens (Human), UniProt Q96SW2+Q9UKT9); experiment: Western-blot assay of substrate protein degradation in hPBMC, IKZF3; type: cell-based; conditions: for residual substrate protein level, IKZF3: hPBMC cells, compound 500 nM, 24 hours, Western blot
Experimental: as §1, §2, §3

[5] = hPBMC, 24 h, serially diluted 0.03-1000 nM

Chain of IKZF3 protein (Q9UKT9 whole entry): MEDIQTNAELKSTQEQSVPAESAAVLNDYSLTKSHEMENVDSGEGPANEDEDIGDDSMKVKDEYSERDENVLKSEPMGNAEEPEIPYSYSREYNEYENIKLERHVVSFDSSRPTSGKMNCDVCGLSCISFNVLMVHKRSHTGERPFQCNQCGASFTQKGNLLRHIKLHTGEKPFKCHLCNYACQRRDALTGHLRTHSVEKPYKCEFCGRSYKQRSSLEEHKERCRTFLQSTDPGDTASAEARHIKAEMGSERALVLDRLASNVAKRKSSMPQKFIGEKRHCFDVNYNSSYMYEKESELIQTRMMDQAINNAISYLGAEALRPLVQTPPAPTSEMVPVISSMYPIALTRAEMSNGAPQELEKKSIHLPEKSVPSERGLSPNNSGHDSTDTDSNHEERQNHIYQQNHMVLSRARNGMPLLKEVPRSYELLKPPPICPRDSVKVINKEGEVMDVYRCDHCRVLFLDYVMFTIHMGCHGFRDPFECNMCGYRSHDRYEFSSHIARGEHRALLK
Chain of IKZF3 protein (Q96SW2 whole entry): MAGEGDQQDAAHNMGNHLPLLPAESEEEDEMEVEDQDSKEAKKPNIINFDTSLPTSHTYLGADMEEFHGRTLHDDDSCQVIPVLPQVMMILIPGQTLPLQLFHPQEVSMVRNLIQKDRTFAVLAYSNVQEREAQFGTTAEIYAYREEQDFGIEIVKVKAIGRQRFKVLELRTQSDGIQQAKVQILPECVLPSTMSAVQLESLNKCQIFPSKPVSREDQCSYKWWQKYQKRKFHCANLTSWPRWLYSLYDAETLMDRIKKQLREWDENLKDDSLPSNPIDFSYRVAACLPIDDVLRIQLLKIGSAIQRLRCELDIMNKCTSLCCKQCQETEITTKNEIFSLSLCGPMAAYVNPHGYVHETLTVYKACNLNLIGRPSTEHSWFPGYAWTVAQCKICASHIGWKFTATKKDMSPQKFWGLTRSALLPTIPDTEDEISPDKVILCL
Chain of IKZF3 protein (Q16531 whole entry partner): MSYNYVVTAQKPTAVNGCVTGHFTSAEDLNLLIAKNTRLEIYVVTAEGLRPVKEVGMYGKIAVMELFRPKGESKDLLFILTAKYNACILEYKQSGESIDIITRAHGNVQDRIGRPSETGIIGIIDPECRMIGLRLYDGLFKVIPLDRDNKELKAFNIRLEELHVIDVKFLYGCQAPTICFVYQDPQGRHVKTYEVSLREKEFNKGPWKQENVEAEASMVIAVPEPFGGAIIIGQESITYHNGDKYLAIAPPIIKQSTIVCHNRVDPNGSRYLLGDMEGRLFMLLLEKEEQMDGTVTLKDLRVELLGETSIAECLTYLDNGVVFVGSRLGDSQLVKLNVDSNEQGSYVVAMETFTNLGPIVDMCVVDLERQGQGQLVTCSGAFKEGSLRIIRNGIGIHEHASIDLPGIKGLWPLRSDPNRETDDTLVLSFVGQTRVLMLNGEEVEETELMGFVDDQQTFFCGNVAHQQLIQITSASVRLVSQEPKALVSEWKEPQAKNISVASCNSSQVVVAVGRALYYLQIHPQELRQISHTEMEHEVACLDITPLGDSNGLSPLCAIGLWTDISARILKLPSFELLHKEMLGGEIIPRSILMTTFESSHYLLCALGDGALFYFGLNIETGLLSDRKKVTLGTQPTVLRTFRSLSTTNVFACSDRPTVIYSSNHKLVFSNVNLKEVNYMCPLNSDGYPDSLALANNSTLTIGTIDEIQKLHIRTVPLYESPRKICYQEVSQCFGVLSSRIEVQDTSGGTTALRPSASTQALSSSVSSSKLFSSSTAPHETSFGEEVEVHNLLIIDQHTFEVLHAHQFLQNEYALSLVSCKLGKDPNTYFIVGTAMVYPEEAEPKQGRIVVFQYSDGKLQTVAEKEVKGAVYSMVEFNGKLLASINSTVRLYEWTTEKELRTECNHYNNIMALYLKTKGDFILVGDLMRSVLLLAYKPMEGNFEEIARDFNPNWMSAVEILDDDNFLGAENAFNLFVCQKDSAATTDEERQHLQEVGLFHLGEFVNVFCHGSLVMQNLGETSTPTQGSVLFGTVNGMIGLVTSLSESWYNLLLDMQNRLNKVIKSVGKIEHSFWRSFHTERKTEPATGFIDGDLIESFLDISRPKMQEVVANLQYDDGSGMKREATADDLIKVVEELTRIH
Chain of IKZF1 protein (Q13422 whole entry): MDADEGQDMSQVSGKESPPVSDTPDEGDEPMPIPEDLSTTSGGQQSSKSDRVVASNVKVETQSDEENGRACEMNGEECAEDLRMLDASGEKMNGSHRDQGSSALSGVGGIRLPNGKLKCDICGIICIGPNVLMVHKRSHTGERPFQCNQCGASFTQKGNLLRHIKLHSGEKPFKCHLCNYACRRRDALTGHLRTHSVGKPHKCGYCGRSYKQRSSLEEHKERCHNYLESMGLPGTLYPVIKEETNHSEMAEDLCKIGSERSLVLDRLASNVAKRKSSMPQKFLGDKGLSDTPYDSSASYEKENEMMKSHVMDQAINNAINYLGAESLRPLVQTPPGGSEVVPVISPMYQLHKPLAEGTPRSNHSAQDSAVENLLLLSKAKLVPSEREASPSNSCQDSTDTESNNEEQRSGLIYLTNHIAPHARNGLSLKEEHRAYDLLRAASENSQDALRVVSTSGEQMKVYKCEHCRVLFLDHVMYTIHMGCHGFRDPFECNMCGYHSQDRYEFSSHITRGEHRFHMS
Chain of IKZF1 protein (Q96SW2 whole entry): as the sequence (Q96SW2 whole entry) above
Chain of IKZF1 protein (Q16531 whole entry partner): as the sequence (Q16531 whole entry partner) above
Chain of GSPT1 protein (P15170 whole entry): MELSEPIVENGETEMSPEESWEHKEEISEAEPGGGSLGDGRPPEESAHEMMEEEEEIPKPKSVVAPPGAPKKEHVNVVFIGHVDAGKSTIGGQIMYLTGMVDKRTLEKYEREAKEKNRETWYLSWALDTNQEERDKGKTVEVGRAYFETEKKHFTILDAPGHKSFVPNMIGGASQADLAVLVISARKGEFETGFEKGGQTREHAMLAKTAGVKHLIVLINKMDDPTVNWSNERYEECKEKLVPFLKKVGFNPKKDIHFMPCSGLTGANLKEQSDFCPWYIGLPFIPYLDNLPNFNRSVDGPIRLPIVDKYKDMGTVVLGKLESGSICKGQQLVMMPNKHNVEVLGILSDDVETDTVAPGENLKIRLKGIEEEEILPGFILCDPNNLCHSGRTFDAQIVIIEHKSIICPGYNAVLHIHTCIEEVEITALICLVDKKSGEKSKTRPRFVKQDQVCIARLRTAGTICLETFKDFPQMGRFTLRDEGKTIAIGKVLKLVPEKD
Chain of GSPT1 protein (Q96SW2 whole entry): as the sequence (Q96SW2 whole entry) above
Chain of GSPT1 protein (Q16531 whole entry partner): as the sequence (Q16531 whole entry partner) above
Chain of human Cereblon WT GST-tagged protein (Q96SW2 whole entry): as the sequence (Q96SW2 whole entry) above

| SMILES | residual substrate protein level, IKZF1 [1] | IC50 [2] [nM] | residual substrate protein level, GSPT1 [3] | residual substrate protein level, IKZF3 [4] | concentration at which significant degradation effects on IKZF1 protein are exhibited (FIG. 1) [1, 5] | concentration at which significant degradation effects on GSPT1 protein are exhibited (FIG. 1) [3, 5] | concentration at which significant degradation effects on IKZF3 protein are exhibited (FIG. 1) [4, 5] |
| --- | --- | --- | --- | --- | --- | --- | --- |
| CC1(C)CCC(C(=O)N2CCC3(CC2)CN(Cc2ccc4c(c2)CN(C2CCC(=O)NC2=O)C4=O)C3)=C(c2ccc(F)cc2)C1 (stereo not shown) [GT-05404, 3-(5-((7-(4′-fluoro-5,5-dimethyl-3,4,5,6-tetrahydro-[1,1′-biphenyl]-2-carbonyl)-2,7-diazaspiro[3.5]nonan-2-yl)methyl)-1-oxoisoindolin-2-yl)piperidine-2,6-dione] | B (B represents a residual substrate protein level of >50%) | 490 | B (B represents a residual substrate protein level of >50%) | A (A represents a residual substrate protein level of <50%) | – | – | – |
| CC1(C)CCC(CN2CC3CCC2CN3Cc2ccc3c(c2F)CN(C2CCC(=O)NC2=O)C3=O)=C(c2ccc(Cl)cc2)C1 (stereo not shown) [GT-04168, 3-(5-((5-((4′-chloro-5,5-dimethyl-3,4,5,6-tetrahydro-[1,1′-biphenyl]-2-yl)methyl)-2,5-diazabicyclo[2.2.2]octan-2-yl)methyl)-4-fluoro-1-oxoisoindolin-2-yl)piperidine-2,6-dione] | B (B represents a residual substrate protein level of >50%) | 550 | A (A represents a residual substrate protein level of <50%) | B (B represents a residual substrate protein level of >50%) | – | – | – |
| O=C1CCC(N2Cc3cc(C(=O)N4C5CC4CN(C(=O)C4=C(c6ccc(F)cc6)CCCC4)C5)ccc3C2=O)C(=O)N1 (stereo not shown) [GT-05449, 3-(5-(3-(4′-fluoro-3,4,5,6-tetrahydro-[1,1′-biphenyl]-2-carbonyl)-3,6-diazabicyclo[3.1.1]heptane-6-carbonyl)-1-oxoisoindolin-2-yl)piperidine-2,6-dione] | B (B represents a residual substrate protein level of >50%) | 1690 | A (A represents a residual substrate protein level of <50%) | B (B represents a residual substrate protein level of >50%) | – | – | – |
| CC1(C)CCC(C(=O)N2CC(O)(C(O)c3ccc4c(c3)CN(C3CCC(=O)NC3=O)C4=O)C2)=C(c2ccc(Cl)cc2)C1 (stereo not shown) [GT-05426, 3-(5-((1-(4′-chloro-5,5-dimethyl-3,4,5,6-tetrahydro-[1,1′-biphenyl]-2-carbonyl)-3-hydroxyazetidin-3-yl)(hydroxy)methyl)-1-oxoisoindolin-2-yl)piperidine-2,6-dione] | B (B represents a residual substrate protein level of >50%) | 620 | A (A represents a residual substrate protein level of <50%) | A (A represents a residual substrate protein level of <50%) | – | – | – |
| O=C1CCC(N2Cc3cc(CN4CC5(CCN(Cc6ccccc6-c6ccc(Cl)cc6)CC5)C4)ccc3C2=O)C(=O)N1 (stereo not shown) [GT-05612, 3-(5-((7-((4′-chloro-[1,1′-biphenyl]-2-yl)methyl)-2,7-diazaspiro[3.5]nonan-2-yl)methyl)-1-oxoisoindolin-2-yl)piperidine-2,6-dione] | A (A represents a residual substrate protein level of <50%) | 650 | B (B represents a residual substrate protein level of >50%) | A (A represents a residual substrate protein level of <50%) | – | – | – |
| O=C1CCC(N2Cc3cc(C(=O)N4CC5CCC(C4)N5Cc4ccccc4-c4ccc(Cl)cc4)ccc3C2=O)C(=O)N1 (stereo not shown) [GT-05621, 3-(5-(8-((4′-chloro-[1,1′-biphenyl]-2-yl)methyl)-3,8-diazabicyclo[3.2.1]octane-3-carbonyl)-1-oxoisoindolin-2-yl)piperidine-2,6-dione] | B (B represents a residual substrate protein level of >50%) | 1100 | A (A represents a residual substrate protein level of <50%) | B (B represents a residual substrate protein level of >50%) | – | – | – |
| O=C1CCC(N2Cc3c(ccc(CN4CCN(C(=O)C5=C(c6ccc(F)cc6)CCCC5)CC4)c3F)C2=O)C(=O)N1 (stereo not shown) [GT-05472, 3-(4-fluoro-5-((4-(4′-fluoro-3,4,5,6-tetrahydro-[1,1′-biphenyl]-2-carbonyl)piperazin-1-yl)methyl)-1-oxoisoindolin-2-yl)piperidine-2,6-dione] | B (B represents a residual substrate protein level of >50%) | 1120 | A (A represents a residual substrate protein level of <50%) | B (B represents a residual substrate protein level of >50%) | – | – | – |
| O=C1CCC(N2Cc3cc(CN4CCN(C(=O)c5ccccc5-c5ccc(F)cc5)CC4)ccc3C2=O)C(=O)N1 (stereo not shown) [GT-04194, 3-(5-((4-(4′-fluoro-[1,1′-biphenyl]-2-carbonyl)piperazin-1-yl)methyl)-1-oxoisoindolin-2-yl)piperidine-2,6-dione] | B (B represents a residual substrate protein level of >50%) | 1160 | A (A represents a residual substrate protein level of <50%) | A (A represents a residual substrate protein level of <50%) | below 30 nM | below 30 nM | below 30 nM |
| CC1(C)CCC(CN2CCN(Cc3ccc4c(c3)C(=O)N(C3CCC(=O)NC3=O)C4=O)CC2)=C(c2ccc(F)cc2)C1 (stereo not shown) [GT-05395, 2-(2,6-dioxopiperidin-3-yl)-5-((4-((4′-fluoro-5,5-dimethyl-3,4,5,6-tetrahydro-[1,1′-biphenyl]-2-yl)methyl)piperazin-1-yl)methyl)isoindoline-1,3-dione] | B (B represents a residual substrate protein level of >50%) | 1610 | A (A represents a residual substrate protein level of <50%) | A (A represents a residual substrate protein level of <50%) | – | – | – |
| CC1(C)CCC(CN2CC3CC(C2)N3C(=O)c2ccc3c(c2)CN(C2CCC(=O)NC2=O)C3=O)=C(c2ccc(F)cc2)C1 (stereo not shown) [GT-05450, 3-(5-(3-((4′-fluoro-5,5-dimethyl-3,4,5,6-tetrahydro-[1,1′-biphenyl]-2-yl)methyl)-3,6-diazabicyclo[3.1.1]heptane-6-carbonyl)-1-oxoisoindolin-2-yl)piperidine-2,6-dione] | B (B represents a residual substrate protein level of >50%) | 890 | A (A represents a residual substrate protein level of <50%) | B (B represents a residual substrate protein level of >50%) | – | – | – |
| CC1(C)CCC(CN2CC3CCC(C2)N3Cc2ccc3c(c2)CN(C2CCC(=O)NC2=O)C3=O)=C(c2ccc(F)cc2)C1 (stereo not shown) [GT-05400, 3-(5-((3-((4′-fluoro-5,5-dimethyl-3,4,5,6-tetrahydro-[1,1′-biphenyl]-2-yl)methyl)-3,8-diazabicyclo[3.2.1]octan-8-yl)methyl)-1-oxoisoindolin-2-yl)piperidine-2,6-dione] | B (B represents a residual substrate protein level of >50%) | 840 | A (A represents a residual substrate protein level of <50%) | B (B represents a residual substrate protein level of >50%) | – | – | – |
| O=C1CCC(N2Cc3cc(CN4C5CCC4CN(Cc4ccccc4-c4ccc(Cl)cc4)C5)ccc3C2=O)C(=O)N1 (stereo not shown) [GT-05710, 3-(5-((3-((4′-chloro-[1,1′-biphenyl]-2-yl)methyl)-3,8-diazabicyclo[3.2.1]octan-8-yl)methyl)-1-oxoisoindolin-2-yl)piperidine-2,6-dione] | B (B represents a residual substrate protein level of >50%) | 1100 | A (A represents a residual substrate protein level of <50%) | A (A represents a residual substrate protein level of <50%) | – | – | – |
| CC1(C)CCC(CN2CC3CC(C2)N3Cc2ccc3c(c2)C(=O)N(C2CCC(=O)NC2=O)C3=O)=C(c2ccc(Cl)cc2)C1 (stereo not shown) [GT-05368, 5-((3-((4′-chloro-5,5-dimethyl-3,4,5,6-tetrahydro-[1,1′-biphenyl]-2-yl)methyl)-3,6-diazabicyclo[3.1.1]heptan-6-yl)methyl)-2-(2,6-dioxopiperidin-3-yl)isoindoline-1,3-dione] | B (B represents a residual substrate protein level of >50%) | 1800 | A (A represents a residual substrate protein level of <50%) | A (A represents a residual substrate protein level of <50%) | – | – | – |
